# Columns and labels:
# Type in all cases: cell-based
# Staph. aureus Russell = test: MIC of ampicillin in the presence of the inhibitor, Staph. aureus Russell
# Protocol: (§1) The MIC of ampicillin was determined in the presence of the pivaloyloxymethyl ester of 6-β-bromopenicillanic acid (inhibitor).
# Klebsiella aerogenes E70 = test: MIC of ampicillin in the presence of the inhibitor, Klebsiella aerogenes E70
# Protocol: as §1
# Proteus sp. C889 = test: MIC of ampicillin in the presence of the inhibitor, Proteus sp. C889
# Protocol: as §1
# E. coli JT. 39 = test: MIC of ampicillin in the presence of the inhibitor, E. coli JT. 39
# Protocol: as §1
compound,measurement,setting,value
CC(C)(C)C(=O)OCOC(=O)[C@@H]1N2C(=O)[C@@H](Br)[C@H]2SC1(C)C [pivaloyloxymethyl 6β-bromopenicillanate],MIC of Ampicillin,Staph. aureus Russell; inhibitor conc. 5 μg/ml,3.1 µg/mL
same,MIC of Ampicillin,Staph. aureus Russell; inhibitor conc. 20 μg/ml,0.78 µg/mL
same,MIC of Ampicillin,Klebsiella aerogenes E70; inhibitor conc. 5 μg/ml,12.5 µg/mL
same,MIC of Ampicillin,Klebsiella aerogenes E70; inhibitor conc. 20 μg/ml,6.2 µg/mL
same,MIC of Ampicillin,Proteus sp. C889; inhibitor conc. 5 μg/ml,31 µg/mL
same,MIC of Ampicillin,Proteus sp. C889; inhibitor conc. 20 μg/ml,8 µg/mL
same,MIC of Ampicillin,E. coli JT. 39; inhibitor conc. 5 μg/ml,4 µg/mL
same,MIC of Ampicillin,E. coli JT. 39; inhibitor conc. 20 μg/ml,2 µg/mL

# — US4296032A (priority 1979, dated 1981)
